# Laboratory results reported in patent US11717536B2, “Treatment for periodontitis” (THE UNIVERSITY OF MELBOURNE, priority 2017, dated 2023).
# Several values for one entry are separate records, joined by “and”; a condition that tells them apart may be missing. Identical values can stand only once. Marks after values point to notes of the source that are not given here.
# Experiments:
# [1] = test system: enamel substratum of the polymicrobial biofilm caries model; assay: Enamel subsurface demineralization in the polymicrobial biofilm caries model (transverse microradiography); design: species or system human; settings: for integrated mineral loss ΔZd / lesion depth LD: twice daily 10 min pulses, mean ± SD
# Description: To model supragingival plaque six representative oral bacterial species, Streptococcus sanguinis (NCTC 7863), Streptococcus mutans Ingbritt, Actinomyces naeslundii (NCTC 10301), Veillonella parvula (ATCC 17745), Lactobacillus casei (NCDO 161) and Fusobacterium nucleatum (ATCC 10953) (Table 5) were cultured as a polymicrobial biofilm on a human enamel substratum in a constant-depth film fermenter (CDFF; Cardiff University, UK). The CDFF was housed in a 37° C. incubator under anaerobic conditions which were maintained by a constant flow of 5% CO2 in N2 at 1 L/h. The CDFF contained 15 removable polytetrafluoroethylene (PTFE) pans on a circular platform that was rotated at a constant speed of three rpm. The biofilms were grown on three enamel blocks (see below) in each PTFE pan using an artificial saliva medium (ASM, 2.5 g/L mucin type II (porcine, gastric, Sigma), 2.0 g/L bacteriological peptone (Oxoid), 2.0 g/L tryptone (Oxoid), 1.0 g/L yeast extract (Oxoid), 0.35 g/L NaCl, 0.2 g/L KCl, 0.2 mg/L vitamin K, 1 mg/L haemin and 0.1 g/L cysteine hydrochloride) at a constant flow rate of 30 mL/h. Prior to inoculation, the CDFF pan surfaces were conditioned for 24 h with ASM at a flow rate of 10 mL/h (McBain et al (2003) J Appl Microbiol. 94(4):655-66). In order to mimic in vivo bacterial growth conditions in the oral cavity with dietary sugar intake and to provide a high cariogenic challenge, a 1% (w/v) sucrose solution in ASM was pumped into the CDFF four times a day at four hourly intervals with a flow rate of 30 mL/h for 10 min.
# Three treatments were applied to the polymicrobial biofilms: 290 ppm fluoride with 220 ppm fluoride as SnF2 and 70 ppm fluoride as NaF (referred to as SnF2), 2% CPP-ACP and 2% CPP-ACP-SnF2. These treatments were compared with the control in which the test solution was replaced with ASM. Each treatment was applied using two 10 min pulses of the test solution in ASM with a flow rate of 30 mL/h. The first pulse started 30 min prior to the first sucrose pulse of the morning and the second started 3 h 30 min after the final sucrose pulse of the day.
# On day 6, 12 and 19 after inoculation four pans were removed aseptically from the CDFF and replaced with blank sterile pans. Enamel blocks from the pans were removed for bacterial enumeration and transverse microradiography.
# Three hundred and sixty extracted human third molars were obtained under University of Melbourne ethics approval (HREC #1237616) and sterilized by exposure to 4.1 kGy of gamma radiation. Enamel blocks were cut from the teeth with approximately 6×3×3 mm dimensions using a water-cooled diamond blade saw (Minitom, Struers) and polished using a RotoPol/RotoForce lapping instrument with 1200, 2400, 4000 grit lapping papers (Struers) and 3 and 1 μm diamond polishing pastes (Struers). The blocks were positioned in custom made CDFF pans at a depth of 100 μm and sealed in place with yellow sticky wax (Kemdent) and sterilized by exposure to 4.1 kGy of gamma radiation.
# Transverse microradiography was carried out essentially as described previously [Shen et al 2011]. […] The lesion depth (μm) was determined as the distance to the point at which the mineral content reaches 95% of the sound enamel value. The integrated mineral loss (IML), represented as ΔZd, was calculated by trapezoidal integration as the area between the sound-enamel densitometric profile and that of the demineralized enamel densitometric profile in vol % min·μm.
# gingivitis = assay: Clinical trial: gingivitis by Modified Gingival Index; type: in vivo, human; settings: CPP-ACP gum (18.8 and 56.4 mg), 14 days, vs no gum chewing; FIG. 2
# Description: Following the completion of the examination and supragingival plaque collection, participants received a supragingival scaling, clean and prophylaxis of all their teeth. At the completion of the last examination for leg 3, each participant received a professional fluoride treatment. Gingivitis was measured using the Modified Gingival Index [Lobene et al 1986]. This index is a modification of the Loe and Silness Gingival Index and allows greater discrimination for mild and moderate gingivitis. In this study, gingival inflammation on a scale from 0 to 4 was scored for gingival tissues associated with four sites (buccal, lingual, mesial and distal) of all teeth.
substance,measurement,setting,value
Casein phosphopeptide-amorphous calcium phosphate [CPP-ACP],integrated mineral loss ΔZd,[1]; Day 6,572.9 ± 97.80 vol % min · μm
same,lesion depth LD,[1]; Day 6,15.0 ± 2.1^a μm
same,integrated mineral loss ΔZd,[1]; Day 12,1075.3 ± 148.0^ad vol % min · μm
same,lesion depth LD,[1]; Day 12,26.3 ± 4.4^ade μm
same,integrated mineral loss ΔZd,[1]; Day 19,2105.4 ± 346.2^bd vol % min · μm
same,lesion depth LD,[1]; Day 19,52.3 ± 3.2^ad μm
same,rate of demineralization,[1]; between day 6 and day 19,112.1 vol % min·μm/day
same,reduction in rate of demineralization relative to control,"[1]; between day 6 and day 19, twice daily exposure",50.2% and 50%
same,gingival index,gingivitis,significant CPP-ACP dose-related improvement
